Each compound was assayed against T1, human GPR120 (Homo sapiens, UniProt Q5NUL3) (assay: GPR120 β-Arrestin Recruitment Assay (PathHunter, CHO-K1 cells)). Details: CHO-K1; @ 10 uM; read-out: percent activation at a single concentration (printed in the β-Arr pEC50 column).
T1 construct: host or cells: CHO-K1
T1 sequence (Q5NUL3 1-377 isoform Q5NUL3-1): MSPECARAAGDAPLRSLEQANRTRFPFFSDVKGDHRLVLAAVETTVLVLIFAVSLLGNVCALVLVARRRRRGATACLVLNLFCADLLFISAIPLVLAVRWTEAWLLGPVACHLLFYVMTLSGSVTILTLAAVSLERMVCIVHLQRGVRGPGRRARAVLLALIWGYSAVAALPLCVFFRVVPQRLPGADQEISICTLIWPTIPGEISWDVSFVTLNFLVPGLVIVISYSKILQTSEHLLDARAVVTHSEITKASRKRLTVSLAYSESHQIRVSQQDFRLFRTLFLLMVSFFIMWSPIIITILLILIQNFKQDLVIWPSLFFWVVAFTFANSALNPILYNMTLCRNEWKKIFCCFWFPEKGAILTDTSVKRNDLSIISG
T1 sequence (P32121 whole entry partner): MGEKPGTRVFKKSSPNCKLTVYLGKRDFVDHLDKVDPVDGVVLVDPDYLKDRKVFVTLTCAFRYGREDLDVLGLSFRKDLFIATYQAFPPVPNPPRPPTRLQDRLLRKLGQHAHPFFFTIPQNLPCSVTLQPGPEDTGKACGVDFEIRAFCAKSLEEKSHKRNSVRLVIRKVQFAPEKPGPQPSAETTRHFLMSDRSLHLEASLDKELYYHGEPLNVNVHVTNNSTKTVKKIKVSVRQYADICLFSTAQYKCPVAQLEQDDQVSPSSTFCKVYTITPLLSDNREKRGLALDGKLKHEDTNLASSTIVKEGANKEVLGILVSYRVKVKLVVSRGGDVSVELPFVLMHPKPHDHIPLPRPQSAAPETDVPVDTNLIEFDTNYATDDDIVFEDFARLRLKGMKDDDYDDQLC
Assay type: cell-based
From the text: This in vitro assay tests compounds' ability to activate intracellular signaling via 3-Arrestin recruitment to heterologously expressed human GPR120. This functional cellular assay utilizes enzyme fragment complementation with β-galactosidlase (β-gal) as a functional reporter (DiscoveRx PathlHunter® β-Arrestin assay platform). The human (GPR120 receptor (GenBank accession Number NM_181745) was fused in frame with the small enzyme fragment ProLink™ and co-expressed in CHO-K1 cells with a fusion protein of β-Arrestin 2 and the larger, N-terminal deletion mutant of β-gal. Activation by a GPR120 agonist stimulates binding of β-arrestin to the ProLink-tagged GPCR and forces complementation of the two enzyme fragments, resulting in the formation of an active β-gal enzyme. This interaction leads to an increase in enzyme activity that can be measured using chemiluminescent PathHunter® Detection Reagents.
One day prior to the assay, cells were seeded in a total volume of 20 μl of growth medium into white walled 384-well microplates and incubated at 37° C./5% CO2 overnight. On the day of the assay, growth medium was removed and 20 μl assay buffer (HBSS+10 mM HEPES+0.1% heat-inactivated BSA) were added to each well.
Test compounds were dissolved in 100% DMSO to a concentration of 10 mM to provide stock solutions. Serial dilutions were performed from stock solutions into assay buffer to obtain intermediate concentrations of 5-fold higher than the concentrations to be tested. 5 μl of the 5× compound solutions were added to the cells and the assay plates were incubated at 37° C. for 90 minutes. The final concentration of compounds tested in the assay ranged from 1.5 nM to 100 μM. Following incubation, 12.5 μl of PathHunter® detection reagent were added to each well, and plates were incubated at room temperature for 60 minutes. Chemiluminescence was read using an EnVision plate reader (PerkinElmer), raw data were expressed as relative light units (RLU).
To determine agonist potencies (EC50 values), non-linear least-squares curve fits of the raw data (RLU) were performed in the GraphPad Prism software package, using the 4-parameter model with variable Hill Slope:
Reported below in Table 1 are pEC50 values (pEC50=−log(EC50) from curve fit) for compounds of Formula I in this assay, β-Arr pEC50 Alternatively, percent activation at a single concentration is reported.
With `CC1(C)c2ccccc2CN1c1ccnc(Oc2cccnc2)n1` [Compound 2] the activation at 10 µM was 18%.
`c1cncc(Oc2nccc(N3Cc4ccccc4C3)n2)c1` [Compound 13] showed an activation at 10 µM of 9%.
Work on `c1cncc(Oc2ccnc(N3Cc4ccccc4C3)n2)c1` [Compound 14] yielded an activation at 10 µM of 8%.
`O=S1(=O)c2ccccc2CN1c1ccnc(Oc2ccncc2)n1` [Compound 15] showed an activation at 10 µM of 3%.
Work on `Cc1ncccc1Oc1nccc(N2Cc3ccccc3S2(=O)=O)n1` [Compound 17] yielded an activation at 10 µM of 4%.
`CC(=O)Nc1cccc(Oc2nccc(N3Cc4ccccc4S3(=O)=O)n2)c1` [Compound 24] was tested, and the activation at 10 µM was 1%.
In the case of `O=S1(=O)c2ccccc2CN1c1ccnc(Oc2cncnc2)n1` [Compound 25], the activation at 10 µM is reported as 16%.
Work on `O=S1(=O)c2ccccc2CN1c1ccnc(Oc2ccnc3ccccc23)n1` [Compound 27] yielded an activation at 10 µM of 9%.
With `O=S1(=O)c2ccccc2CN1c1ccnc(-n2ccc3ccncc32)n1` [Compound 30] the activation at 10 µM was 17%.
`O=S1(=O)c2ccccc2CN1c1ccnc(-n2cnc3ccccc32)n1` [Compound 31] gave an activation at 10 µM of 11%.
`O=S1(=O)c2ccccc2CN1c1ccnc(OCc2cccnc2)n1` [Compound 71] showed an activation at 10 µM of 1%.

Same assay, conditions: pEC50=−log(EC50) from curve fit; CHO-K1 cells, 90 min incubation; read-out: β-Arr pEC50 (converted)
Work on `O=S1(=O)c2cccc(Cl)c2CN1c1ccnc(Oc2cccnc2)n1` [Compound 3] yielded an EC50 of over 31.6 µM.
In the case of `O=S1(=O)c2cc(Cl)ccc2CN1c1ccnc(Oc2cccnc2)n1` [Compound 4], the EC50 is reported as over 31.6 µM.
Work on `COc1ccc2c(c1Cl)S(=O)(=O)N(c1ccnc(Oc3cccnc3)n1)C2` [Compound 5] yielded an EC50 of over 10 µM.
`CC1(C)c2ccccc2S(=O)(=O)N1c1ccnc(Oc2cccnc2)n1` [Compound 6] gave an EC50 of over 10 µM.
Work on `O=S1(=O)c2ccccc2CN1c1ccnc(OC2CC(F)(F)C2)n1` [Compound 7] yielded an EC50 of 12.6 µM.
`CC1c2ccccc2S(=O)(=O)N1c1ccnc(Oc2cccnc2)n1` (stereo not drawn) [Compound 8] was tested, and the EC50 was 12.6 µM.
In the case of `O=C1c2cccnc2CN1c1ccnc(Oc2cccnc2)n1` [Compound 9], the EC50 is reported as over 31.6 µM.
Compound `O=C1c2ncccc2CN1c1ccnc(Oc2cccnc2)n1` [Compound 10] has an EC50 of over 31.6 µM.
Compound `COc1ccc2c(c1)C(=O)N(c1ccnc(Oc3cccnc3)n1)C2` [Compound 11] has an EC50 of over 10 µM.
`COc1ccc2c(c1)CN(c1ccnc(Oc3cccnc3)n1)C2=O` [Compound 12] gave an EC50 of over 31.6 µM.
`Cc1ccc(Oc2nccc(N3Cc4ccccc4S3(=O)=O)n2)cn1` [Compound 18] showed an EC50 of over 10 µM.
Compound `CN(C)c1cccc(Oc2nccc(N3Cc4ccccc4S3(=O)=O)n2)c1` [Compound 23] has an EC50 of 3.16 µM.
`O=S1(=O)c2ccccc2CN1c1ccnc(Oc2cnc3ccccc3c2)n1` [Compound 26] gave an EC50 of 12.6 µM.
`O=C1c2ccccc2CN1c1ccnc(Oc2cccnc2)n1` [Compound 28] gave an EC50 of 12.6 µM.
`O=S1(=O)c2ccccc2CN1c1ccnc(-n2ccc3ccccc32)n1` [Compound 29] gave an EC50 of 15.8 µM.
Work on `O=S1(=O)c2ccccc2CN1c1ccnc(Oc2cncc3ccccc23)n1` [Compound 32] yielded an EC50 of 25.1 µM.
Compound `O=S1(=O)c2ccccc2CN1c1ccnc(Oc2cc(Cl)cc(Cl)c2)n1` [Compound 38] has an EC50 of 15.8 µM.
Work on `COc1cccc(Oc2nccc(N3Cc4ccccc4S3(=O)=O)n2)c1` [Compound 39] yielded an EC50 of over 10 µM.
`N#Cc1ccc(Oc2nccc(N3Cc4ccccc4S3(=O)=O)n2)cc1` [Compound 40] showed an EC50 of over 10 µM.
In the case of `O=S1(=O)c2ccccc2CN1c1ccnc(Oc2ccc(Oc3ccccc3)cc2)n1` [Compound 43], the EC50 is reported as over 31.6 µM.
Work on `Cc1cc(Cl)cc(Oc2nccc(N3Cc4ccccc4S3(=O)=O)n2)c1` [Compound 46] yielded an EC50 of 5.01 µM.
Compound `O=S1(=O)c2ccccc2CN1c1ccnc(Oc2ccc(C(F)(F)F)cc2)n1` [Compound 47] has an EC50 of 6.31 µM.
For `O=S1(=O)c2ccccc2CN1c1ccnc(Oc2ccc(-n3cncn3)cc2)n1` [Compound 48], the EC50 was over 10 µM.
In the case of `O=S1(=O)c2ccccc2CN1c1ccnc(Oc2ccc(OC(F)(F)F)cc2)n1` [Compound 49], the EC50 is reported as 2.51 µM.
`O=S1(=O)c2ccccc2CN1c1ccnc(Oc2cncc(Br)c2)n1` [Compound 52] gave an EC50 of 12.6 µM.
`Cc1cc(C)c(Oc2nccc(N3Cc4ccccc4S3(=O)=O)n2)cn1` [Compound 53] showed an EC50 of over 10 µM.
In the case of `O=S1(=O)c2ccccc2CN1c1ccnc(Oc2ccc(Cl)nc2)n1` [Compound 54], the EC50 is reported as over 10 µM.
`N#Cc1ccc(Oc2nccc(N3Cc4ccccc4S3(=O)=O)n2)cn1` [Compound 55] gave an EC50 of over 10 µM.
Compound `O=S1(=O)c2ccccc2CN1c1ccnc(Oc2ccc(OC(F)(F)F)cc2Cl)n1` [Compound 57] has an EC50 of 1 µM.
`O=S1(=O)c2ccccc2CN1c1ccnc(OC2CCNCC2)n1` [Compound 62] showed an EC50 of over 10 µM.
`O=S1(=O)c2ccccc2CN1c1ccnc(OC2CCOCC2)n1` [Compound 64] was tested, and the EC50 was over 10 µM.
In the case of `O=S1(=O)c2ccccc2CN1c1ccnc(OC2CCOC2)n1` (stereo not drawn) [Compound 65], the EC50 is reported as over 10 µM.
Compound `CC(=O)N1CCCC(Oc2nccc(N3Cc4ccccc4S3(=O)=O)n2)C1` (stereo not drawn) [Compound 66] has an EC50 of over 10 µM.
`O=S1(=O)c2ccccc2CN1c1ccnc(OCC2CCCCC2)n1` [Compound 68] gave an EC50 of 2.51 µM.
Work on `O=S1(=O)c2ccccc2CN1c1ccnc(OCC2CCC2)n1` [Compound 69] yielded an EC50 of 3.98 µM.
Work on `O=S1(=O)c2ccccc2CN1c1ccnc(OCc2ccccc2)n1` [Compound 70] yielded an EC50 of 15.8 µM.
With `O=S1(=O)c2ccccc2CN1c1ccnc(OCc2ccncc2)n1` [Compound 73] the EC50 was over 10 µM.
Compound `CN1CCC(Oc2nccc(N3Cc4ccccc4S3(=O)=O)n2)CC1` [Compound 74] has an EC50 of over 31.6 µM.
For `NC(=O)COc1nccc(N2Cc3ccccc3S2(=O)=O)n1` [Compound 75], the EC50 was over 31.6 µM.
`O=C(COc1nccc(N2Cc3ccccc3S2(=O)=O)n1)Nc1ccccc1` [Compound 76] was tested, and the EC50 was over 31.6 µM.
`N#Cc1cc(N2Cc3ccccc3S2(=O)=O)nc(Oc2cccnc2)n1` [Compound 81] showed an EC50 of 6.31 µM.
`CC(C)c1cc(N2Cc3ccccc3S2(=O)=O)nc(Oc2cccnc2)n1` [Compound 84] showed an EC50 of over 10 µM.
`COc1ccc(-c2cc(N3Cc4ccccc4S3(=O)=O)nc(Oc3cccnc3)n2)cc1` [Compound 85] was tested, and the EC50 was over 31.6 µM.
Work on `CNC(=O)c1cc(N2Cc3ccccc3S2(=O)=O)nc(Oc2cccnc2)n1` [Compound 88] yielded an EC50 of over 10 µM.
`COc1ccc2c(c1)S(=O)(=O)N(c1nccc(Oc3cccnc3)n1)C2` [Compound 90] gave an EC50 of 12.6 µM.
`Cc1cc(N2Cc3ccccc3S2(=O)=O)nc(OC2CC(F)(F)C2)n1` [Compound 91] gave an EC50 of 3.98 µM.
In the case of `Cc1cc(OC2CC(F)(F)C2)nc(N2Cc3ccccc3S2(=O)=O)n1` [Compound 92], the EC50 is reported as 3.16 µM.
With `O=S1(=O)c2ccccc2CN1c1nccc(OC2CC(F)(F)C2)n1` [Compound 94] the EC50 was over 10 µM.
In the case of `COc1cc(N2Cc3ccccc3S2(=O)=O)nc(Oc2ccc(Cl)cc2)n1` [Compound 95], the EC50 is reported as 0.398 µM.
`COc1cc(N2Cc3ccccc3S2(=O)=O)nc(Oc2ccccc2)n1` [Compound 100] showed an EC50 of 0.158 µM.
`COc1cc(Oc2ccccc2)nc(N2Cc3ccccc3S2(=O)=O)n1` [Compound 102] gave an EC50 of 0.794 µM.
`O=S1(=O)c2ccccc2CN1c1cc(C(F)(F)F)nc(Oc2ccc(F)cc2)n1` [Compound 103] was tested, and the EC50 was 2 µM.
`Cc1cc(Oc2ccc(F)cc2)nc(N2Cc3ccccc3S2(=O)=O)n1` [Compound 104] showed an EC50 of 3.98 µM.
`Cc1cc(Oc2ccccc2)nc(N2Cc3ccccc3S2(=O)=O)n1` [Compound 105] gave an EC50 of 2.51 µM.
Compound `Cc1cc(N2Cc3ccccc3S2(=O)=O)nc(Oc2ccccc2)n1` [Compound 107] has an EC50 of 0.794 µM.
For `CN1CCN(c2cc(N3Cc4ccccc4S3(=O)=O)nc(Oc3cccnc3)n2)CC1` [Compound 108], the EC50 was over 31.6 µM.
Compound `CS(=O)(=O)N1CC(Oc2nccc(N3Cc4ccccc4S3(=O)=O)n2)C1` [Compound 109] has an EC50 of over 31.6 µM.
`CC(=O)N1CC(Oc2nccc(N3Cc4ccccc4S3(=O)=O)n2)C1` [Compound 110] was tested, and the EC50 was over 31.6 µM.
`CC(=O)N1CCC(Oc2nccc(N3Cc4ccccc4S3(=O)=O)n2)CC1` [Compound 111] gave an EC50 of over 10 µM.
`CC(=O)N1CCC(Oc2nccc(N3Cc4ccccc4S3(=O)=O)n2)C1` (stereo not drawn) [Compound 112] showed an EC50 of over 31.6 µM.
Work on `O=C1c2cccc(Br)c2CN1c1ccnc(Oc2cccnc2)n1` [Compound 113] yielded an EC50 of 12.6 µM.
In the case of `Cc1cc(Oc2cccnc2)nc(N2Cc3ccccc3S2(=O)=O)n1` [Compound 115], the EC50 is reported as 6.31 µM.
`COc1ccc2c(c1)CN(c1nccc(Oc3cccnc3)n1)S2(=O)=O` [Compound 116] was tested, and the EC50 was 39.8 µM.
`O=C1c2ccccc2CN1c1nccc(Oc2cccnc2)n1` [Compound 117] gave an EC50 of over 10 µM.
Compound `Cc1cccc2c1CN(c1nccc(Oc3cccnc3)n1)C2` [Compound 118] has an EC50 of 1 µM.
`O=C1Cc2ccccc2N1c1nccc(Oc2cccnc2)n1` [Compound 120] gave an EC50 of over 31.6 µM.
`O=S1(=O)c2ccccc2CN1c1cccc(Oc2ccccc2Cl)n1` [Compound 124] showed an EC50 of over 31.6 µM.

Reference: US12116362B2, “Monocyclic compounds useful as GPR120 modulators” (Valo Health, Inc., priority 2016, dated 2024)
